For 35 molecules, inhibition results are on record in US6225478A, “Iridoid derivatives and neovascularization inhibitors containing the same as active ingredient” (Tsumura & Co., priority 1999, dated 2001).

For one assay, the system named is HUFEC. As to the kind of experiment: Cell Migration Assay (CMA) Test, inhibitory rate with control (-) correction. Format: cell-based, human. To be noted: Homo sapiens, 24 h, 125 μl of 0.32 mM sample solution in 4.0 ml medium, 80% or more = remarkable. As for the experimental part:
(§1) Samples were prepared using the present compounds of Compound No. I-60 through I-315. More specifically, 32 μl of a 20 mM sample solution dissolved in dimethylsulfoxide (DMSO) were removed and brought to a volume of 1 ml with phosphate-buffered saline (PBS) to prepare a sample solution having a concentration of 0.32 mM (containing 3.2% DMSO).
After disseminating the 7th subculture of […] obtained from the first generation at 4 ml/well (3.0×10^5 cells/well) in a collagen-coated 6-well plate (NUNC), the cells were cultured for 48 hours at 37° C. in the presence of 5% CO2. The cells reached nearly a completely confluent state as a result of this culturing.
A double-edged, disposable razor blade was divided into four sections, of which one of those sections was pinched between a pair of forceps. Using this piece of razor blade, the cell surface in the above confluent state was scraped off.
After washing the surface of the wells from which the cells had been scraped off with medium, 4.0 ml of fresh M199 (2+) medium were placed in the wells. 4.0 ml of M199 medium were added to the control (-) well.
125 μl of sample solution (0.32 mM, containing 3.2% dimethylsulfoxide) were added to the wells.
125 μl of PBS solution containing 3.2% dimethylsulfoxide were added to the control wells instead of sample. The cells were cultured for 24 hours at 37° C. in the presence of 5% CO2. After discarding the culture liquid, the cells were fixed for 30 minutes with methanol. Next, after […] the cells for 4 hours with Giemsa stain, the plates were washed with tap water and air dried.
Measurement of cell migration was performed by microscopically counting the number of cells that had newly migrated within the range of a 1 mm×1 mm block. […] The total number of cells counted in blocks 1 through 5 were then totaled to determine the overall total number of cells. Four fields were counted for each well.
Evaluation was performed determining the cell migration inhibitory rate (%) according to the following equation.
Inhibitory rate=100-((number of migrating cells to which sample was added-number of migrating cells of control (-))×100/(number of migrating cells of control (+)-number of migrating cells of control (-)))
If this inhibitory rate was 80% or more, cell migration was assessed as being remarkable.

Assay [1] concerns human umbilical-vein endothelial cells (HUVEC). As to the kind of experiment: Tube Formation Assay (TFA) Test, HUVEC in collagen gel. To be noted: Homo sapiens, HUVEC, Tables 75-83; 0.32 mM sample solution; method as for Compounds 1 through 60; read-out: TFA Inhibition rate (%). Format: cell-based. As for the experimental part:
Furthermore, the sample liquids of compounds used in the CPA and CMA tests were prepared in the manner described below. Firstly, after weighing out each compound, a calculated amount of DMSO was added. After dissolving the compound in the DMSO, phosphate buffered physiological saline (PBS (-)) was added to bring the sample concentration to 1 mg/ml in PBS (-). The amount of DMSO used to dissolve the compounds was adjusted in advance to that the concentration of DMSO at that time was 5%. The resulting liquids were diluted 10-fold with 5% DMSO-PBS (-) solution to prepare sample solutions having a concentration of 0.1 mg/ml. In the TFA test, 320 μl of the prepared 1 mg/ml sample solutions were removed followed by addition of 680 μl of PBS (-) to prepare samples having a concentration of […]. Moreover, 100 μl of this solution was removed followed by addition of 900 μl of PBS (-) to dilute 10-fold and prepare samples having a concentration of 1 μg/ml. P [Cell Proliferation Assay (CPA) Test]
To begin with, 8 volumes of Type 1-A cell matrix (manufactured by Gibco Co.), 1 volume of 10×M119, and 1 volume of reconstituted buffer [200 mM HEPES, 0.05 N sodium hydroxide, 260 mM sodium bicarbonate] were slowly mixed under cooling with ice while avoiding bubbling to form a collagen gel. This collagen gel was distributed in a NUNC 24-well plate at 310 μl/well followed by allowing to stand undisturbed for 2 hours at 37° C. to solidify the gel.
Next, the 7th subculture of HUVEC (1×10^5 cells/ml) obtained from the first generation in the same manner as above were disseminated at 500 μl/well. The cells were cultured for 2 hours at 37° C. to allow the cells to make contact with the collagen. After then removing the medium by aspiration, 50 μl of sample solution were added followed by addition of 310 μl/well of freshly prepared collagen gel and culturing for 1 hour and 10 minutes at 37° C. to solidify the double-layer gel.
1 ml/well of M-199 medium containing 20% FCS, 30 ng /ml of b-FGF and 0.1 μM PMA were added to the wells followed by culturing for 20 hours at 37° C. in the presence of 5% CO2.
Measurement of the lengths of the formed tubes was performed using the public domain NIH Image with a computer.
Evaluation was performed by calculating the inhibition rate (%) of tube formation according to the following formula.
Inhibition rate (%)=100-((formed tube length in presence of sample-formed tube length in presence of control (-))×100/(formed tube length in presence of control (+)-formed tube length in presence of control (-)))
as §1
The testing method used for these compounds was the same as that used for the compounds of Compound No. 1 through 60 previously described.

`C[C@]12O[C@H]1C[C@@H]1C(C(=O)O)=CO[C@@H](OC(=O)NCCCl)[C@@H]12` [I-66]: the inhibition at 320 µM (stock) with HUFEC was found to be 30.5%; in assay [1] it was 19.7%.
The matching figures for `COC(=O)CNC(=O)O[C@@H]1OC=C(C(=O)OC)[C@H]2CC=C(C)[C@@H]12` [I-144]: 31.2% and 7.5%.
For `COC(=O)C1=CO[C@@H](OC(=O)N(C)CC2OCCO2)[C@@H]2C(C)=CC[C@H]12` [I-93] the same measures were 5.8% and 2.4%.
For `COC(=O)C1=CO[C@@H](OC(=O)NCc2ccc3c(c2)OCO3)[C@@H]2C(C)=CC[C@H]12` [I-129] the same measures were 4.3% and 19.5%.
Turning to `COC(=O)C1=CO[C@@H](OC(=O)N2CC=C(c3ccccc3)CC2)[C@H]2[C@@H]1CC[C@@H]2C` [I-242], the inhibition at 320 µM (stock) amounted to 5.1% in the assay on HUFEC and 4.8% in assay [1].
The matching figures for `C[C@@H]1CC[C@@H]2C(C(=O)N3CCN(CCO)CC3)=COC[C@H]12` [I-305]: 7.6% and 23.1%.
The matching figures for `CNC(=O)O[C@@H]1OC=C(C(=O)OC)[C@H]2CC[C@@H](C)[C@@H]12` [I-280]: 72.4% and 14.9%.
For `C=CCN(CC=C)C(=O)O[C@@H]1OC=C(C(=O)OC)[C@H]2CC[C@H](C)[C@@H]12` [I-230] the same measures were 28.7% and 6.4%.
For `COC(=O)C1=CO[C@@H](OC(=O)N2CCN(CCO)CC2)[C@@H]2C(C)=CC[C@H]12` [I-71], the inhibition at 320 µM (stock) in the assay with HUFEC was found to be 25.4%; in assay [1] it was 4.1%.
The matching figures for `C=CCNC(=O)O[C@@H]1OC=C(C(=O)OC)[C@H]2CC=C(C)[C@@H]12` [I-123]: 8% and 14.1%.
`COC(=O)C1=CO[C@@H](OC(=O)NC2CC2)[C@H]2[C@@H]1CC[C@@H]2C` [I-218]: the inhibition at 320 µM (stock) came out at 25% with HUFEC and 5.4% in assay [1].
For `COC(=O)C1=CO[C@@H](OC(=O)NCC2CCCO2)[C@H]2[C@@H]1CC[C@@H]2C` (stereo partly drawn) [I-181] the same measures were 2.3% and 3.2%.
For `COC(=O)C1=CO[C@@H](OC(=O)Nc2cccc(C(F)(F)F)c2)[C@H]2[C@@H]1CC[C@@H]2C` [I-277] the same measures were 12.7% and 84.4%.
The matching figures for `COC(=O)C1=CO[C@@H](OC(=O)NCCc2ccc(F)cc2)[C@H]2[C@@H]1CC[C@@H]2C` [I-212]: 21.5% and 7.8%.
As to `COCCCNC(=O)O[C@@H]1OC=C(C(=O)OC)[C@H]2CC=C(C)[C@@H]12` [I-121], the inhibition at 320 µM (stock) with HUFEC was found to be 7.1%; in assay [1] it was 9.4%.
The matching figures for `CCCCCCNC(=O)O[C@@H]1OC=C(C(=O)OC)[C@H]2CC=C(C)[C@@H]12` [I-72]: 42.9% and 5.9%.
Turning to `C[C@]12O[C@H]1C[C@@H]1C(C(=O)N3CCN(CCO)CC3)=COC[C@@H]12` [I-304], the figures for the inhibition at 320 µM (stock) (in the assay with HUFEC; in assay [1]) were 9.4% and 11.2%, respectively.
The matching figures for `COC(=O)C1=CO[C@@H](OC(=O)NCc2ccc(Cl)c(Cl)c2)[C@H]2[C@@H]1CC[C@@H]2C` [I-196]: 27.6% and 6.2%.
For `COC(=O)C1=CO[C@@H](OC(=O)Nc2ccccc2)[C@@H]2C(C)=CC[C@H]12` [I-170] the same measures were 6.7% and 12.9%.
The matching figures for `COC(=O)C1=CO[C@@H](OC(=O)NCCCl)[C@@H]2C(C)=CC[C@H]12` [I-173]: 108% and 11.4%.
`COC(=O)C1=CO[C@@H](OC(=O)NCCCl)[C@@H]2C(COC(=O)NCCCl)=CC[C@H]12` [I-288]: the results for the inhibition at 320 µM (stock) (in the assay with HUFEC; in assay [1]) were 15.9% and 2.4%, respectively.
For `COC(=O)C1=CO[C@@H](OC(=O)NCc2ccc(F)cc2F)[C@@H]2C(C)=CC[C@H]12` [I-77] the same measures were 5.9% and 7.2%.
With `COC(=O)C1=CO[C@@H](OC(=O)NCc2ccco2)[C@@H]2C(C)=CC[C@H]12` [I-110], the inhibition at 320 µM (stock) worked out at 7.8% in the assay with HUFEC and 4.6% in assay [1].
For `COC(=O)C1=CO[C@@H](OC(=O)NCCc2cccs2)[C@H]2[C@@H]1CC[C@@H]2C` [I-197] the same measures were 20% and 4.5%.
For `CONC(=O)O[C@@H]1OC=C(C(=O)OC)[C@H]2CC[C@H](C)[C@@H]12` [I-238] the same measures were 5.9% and 17.8%.
Regarding `COC(=O)C1=CO[C@@H](OC(=O)NCc2ccc(OC(F)(F)F)cc2)[C@@H]2C(C)=CC[C@H]12` [I-106], the inhibition at 320 µM (stock) in the assay on HUFEC turned out to be 6.7%; in assay [1], 26.8%.
The matching figures for `COC(=O)C1=CO[C@@H](OC(N)=O)[C@@H]2C(C)=CC[C@H]12` [I-70]: 7.1% and 75.4%.
For `CONC(=O)O[C@@H]1OC=C(C(=O)OC)[C@H]2CC=C(C)[C@@H]12` [I-137] the same measures were 3.3% and 6.4%.
On to `COC(=O)C1=CO[C@@H](OC(=O)NCCOCCO)[C@@H]2C(C)=CC[C@H]12` [I-101], for which the inhibition at 320 µM (stock) was 15.7% in the assay with HUFEC and 6.3% in assay [1].
As for `CNC(=O)O[C@@H]1OC=C(C(=O)Nc2nccs2)[C@H]2C[C@@H]3O[C@]3(C)[C@@H]12` [I-62], the inhibition at 320 µM (stock) in the assay with HUFEC came to 10.6%; in assay [1], 28.4%.
`COC(=O)C1=CO[C@@H](OC(=O)NCc2ccccn2)[C@H]2[C@@H]1CC[C@@H]2C` [I-177]: the inhibition at 320 µM (stock) was 5% in the assay with HUFEC and 15% in assay [1].
As for `COC(=O)C1=CO[C@@H](OC(=O)NCCS)[C@H]2[C@@H]1CC[C@@H]2C` [I-236], the inhibition at 320 µM (stock) in the assay with HUFEC came out at 28.1%; in assay [1], 10.4%.
For `COC(=O)C1=CO[C@@H](OC(=O)N(C)Cc2ccccc2)[C@@H]2C(C)=CC[C@H]12` [I-81] the same measures were 31.2% and 8.3%.
The matching figures for `COC(=O)C1=CO[C@@H](OC(=O)NCCOCCO)[C@H]2[C@@H]1CC[C@@H]2C` [I-202]: 6.5% and 26.2%.
Consider `COC(=O)C1=CO[C@@H](OC(=O)Nc2ccc(F)cc2F)[C@@H]2C(C)=CC[C@H]12` [I-154], for which the inhibition at 320 µM (stock) in assay [1] is 56.2%.
